Measurements from article PMC7841422, “Predicting Volume of Distribution in Humans: Performance of In Silico Methods for a Large Set of Structurally Diverse Clinical Compounds” (Drug Metabolism and Disposition, 2021).

Experiment: Blood-to-plasma partition ratio in human blood
Format: in vitro ADME
Conditions: human whole blood (K2EDTA as anticoagulant), control compounds, 37°C, 60 minutes incubation, LC/MS/MS, read-out: Blood-to-plasma partition ratio (BPR)
Description: In vitro measurement of blood-to-plasma partition was conducted in human blood (K2EDTA as anticoagulant) obtained from a commercial source (BioReclamation IVT, Liverpool, NY). Hematocrit (the ratio of volume of red blood cells to total blood) was measured by centrifugation of the whole blood at 3000 rpm for 10 minutes using microhematocrit capillary tubes. Control plasma was prepared from a portion of the whole blood by centrifugation at 3000g for 10 minutes. Both whole blood and control plasma samples were warmed at 37°C in a water bath for 30 minutes. Subsequently, the test compounds (1 µM in the final concentration) and controls [methazolamide (BPR ∼1) and metoprolol (BPR […])] were spiked into blood and incubated at 37°C (5% CO2) with shaking at 200 rpm for 60 minutes along with control samples. After incubation for 60 minutes, the incubated whole blood was removed from the water bath, and the plasma was separated by centrifugation at 1000g for 10 minutes. Aliquots of the control plasma were also removed. […] Test compounds and internal standard response (or peak area) ratio in whole blood and its resulting plasma were measured using liquid chromatography with tandem mass spectrometry (LC/MS/MS). Blood-to-plasma partition was calculated by ratio of mass spectrometric response of compounds in blood samples after 60 minutes of incubation to mass spectrometric response in plasma samples.

| Compound | blood plasma ratio at 60 min |
| --- | --- |
| COCCc1ccc(OCC(O)CNC(C)C)cc1 (centres unmarked) [metoprolol] | ~40 |
| CC(=O)/N=c1/sc(S(N)(=O)=O)nn1C [methazolamide] | ~1 |
